Results taken from patent US11185539B2 (priority 2017, dated 2021).

Experiments:
[1] = system: C57BL/6N mice with angiotensin II-induced diastolic heart failure; experiment: Picrosirius-red collagen staining of heart sections, therapeutic model (eight weeks); assay type: in vivo; conditions: therapeutic: i.p. every other day from week 2 of angiotensin II; week 8
Method: (§1) Diastolic heart failure (HF) was induced in C57BL/6N mice via implantation of angiotensin II filled minipumps (see Example 3). In difference to Example 3, C57BL/6N mice were infused with 3 mg/kg/day angiotensin II by subcutaneously implanted minipumps for eight weeks.
(§2) Next, Bufalin or Lycorine (dissolved in DMSO) or the solvent DMSO alone (as control) were injected intraperitoneally (i.p) every other day until the endpoint, starting two weeks after start of angiotensin II-infusion (see FIG. 11).
Additionally, eight weeks after the operation, histological sections of the hearts were stained for collagen using picrosirius-red (n=7-12 per group) after treatment with Bufalin or Lycorine.

[2] = system: primary human pulmonary fibroblasts (HPFs); experiment: Proliferation of primary human pulmonary fibroblasts, BrdU-ELISA; assay type: cell-based; conditions: 24 h; for proliferation of pulmonary fibroblasts (HPFs): Lycorine 1, 5, 10 μM, Bufalin 0.1, 1, 10 μM
Method: (§3) Cells of the rat renal fibroblast cell line NRK49F and primary human pulmonary fibroblasts (HPFs) were treated with Lycorine (1 μM, 5 μM and 10 μM) or Bufalin (0.1 μM, 1 μM, 10 μM) for 24 h and proliferation of respective fibroblasts was measured by BrdU-ELISA (see FIG. 39).

[3] = system: C57BL/6N mice with angiotensin II-induced diastolic heart failure; experiment: Echocardiography in therapeutic murine model (angiotensin II for eight weeks); assay type: in vivo; conditions: therapeutic: Bufalin 0.5 mg/kg i.p. every other day from week 2; week 8
Method: as §1, §2
Diastolic HF was induced in C57BL/6 mice and Bufalin or Lycorine were injected as indicated in Example 5. Eight weeks after the operation, cardiac function of the mice was assessed echocardiographically (n=5-12 per group) by treating the mice with said compounds (Bufalin: 0.5 mg/kg, Lycorine 4.5 mg/kg).
A decrease of the Myocardial Performance Index (MPI) (see FIG. 12B) as well as a reduction of the isovolumetric relaxation time (IVRT) (see FIG. 12C) and an increase in E to A peak ratio (E/A) (the ratio of the early (E) to late (A) ventricular filling velocities as a marker of the function of the left ventricle of the heart) (see FIG. 12D) indicate improvement of both global (MPI) and diastolic (IVRT and E/A) function of the heart, in particular for Bufalin.

kidney and liver [4] = experiment: Kidney and liver histology (HE, PAS), angiotensin II model, fourteen days; assay type: in vivo, mice; conditions: Bufalin 0.5, Lycorine 4.5 mg/kg; fourteen days after the operation
Method: (§4) Again, HF was induced in mice (Example 3) and Bufalin (0.5 mg/kg) as well as Lycorine (4.5 mg/kg) were injected as indicated in Example 3. Fourteen days after the operation, kidneys and livers were subjected to histological assessment via Hematoxylin and Eosin (HE) and Periodic acid-Schiff (PAS) stain (n=2-4 per group) (see FIGS. 28A and B).

[5] = system: C57BL/6N mice with angiotensin II-induced diastolic heart failure; experiment: Hemodynamic measurement (MILLAR), therapeutic model; assay type: in vivo; conditions: therapeutic: Bufalin 0.5 mg/kg, Lycorine 4.5 mg/kg; week 8
Method: as §1, §2
Diastolic HF was induced in C57BL/6 mice and Bufalin or Lycorine were injected as indicated in Example 5. Eight weeks after the operation, hemodynamic measurements of the mice were assessed (n=6-7 per group) by treating the mice with said compounds (Bufalin: 0.5 mg/kg, Lycorine 4.5 mg/kg).

kidney and liver [6] = experiment: Kidney and liver histology (HE, PAS), therapeutic model, eight weeks; assay type: in vivo, mice; conditions: therapeutic approach; Bufalin 0.5, Lycorine 4.5 mg/kg; eight weeks after the operation
Method: as §4, with “HF” for “Again, HF”, “5)” for “3)”, “5. Eight weeks” for “3. Fourteen days”, “(n=4” for “(n=2-4”, “group).” for “group) (see FIGS. 28A and B).”

miRNA expression of HCFs = experiment: High-throughput miRNA sequencing in HCFs; assay type: cell-based, human; conditions: 1 μM, 24 h, vs DMSO
Method: HCFs were treated with 1 μM Bufalin for 24 h as indicated, total RNA was isolated and subjected to high-throughput miRNA sequencing profiling via deep sequencing, DMSO refers as a control. To perform a high-throughput miRNA sequencing the Illumine® TruSeq® Small RNA technology is used to prepare various RNA species which is known to the person skilled in the art. In view of said technology, advantages of the natural structure common to most known microRNA molecules are taken. Most mature miRNAs have a 5′-phosphate and a 3′-hydroxyl group as a result of the cellular pathway used to create them. Because of this, the Illumina adapters which are used are directly and specifically ligated to miRNAs. Thus, libraries for subsequent cluster generation are prepared, using total RNA as input. Further, adapter ligation, reverse transcription, PCR amplification, and pooled gel purification to generate a library product is applied as it is known to the skilled person in the art. […] Data represent pooled triplicates from 3 independent experiments. Representative experiment shown; the same experiment was performed with all the anti-fibrotic natural substances identified (see FIG. 16).

[7] = system: C57BL/6N mice with angiotensin II-induced diastolic heart failure; experiment: Tissue Doppler Imaging, therapeutic model; assay type: in vivo; conditions: therapeutic: Bufalin 0.5 mg/kg; week 8; vs AngII solvent control
Method: as §1, §2
(§5) Diastolic HF was induced in C57BL/6 mice and Bufalin were injected as indicated in Example 5. Eight weeks after the operation, cardiac function of the mice was assessed echocardiographically (n=3-6 per group) by treating the mice with said compounds (Bufalin: 0.5 mg/kg)
Echocardiographic measurements were performed using Tissue Doppler Imaging (TDI), which refers to a medical ultrasound technology mainly used in Echocardiography that measures the velocity of the heart muscle or myocardium through the phases of one or more heartbeats by the Doppler effect (frequency shift) of the reflected ultrasound (see FIG. 14).

[8] = system: rat renal fibroblast cell line NRK49F; experiment: Proliferation of rat renal fibroblast cell line NRK49F, BrdU-ELISA; assay type: cell-based; conditions: 24 h; for proliferation of renal fibroblasts (NRK49F): Lycorine 1, 5, 10 μM, Bufalin 0.1, 1, 10 μM
Method: as §3

[9] = system: C57BL/6N mice with angiotensin II-induced diastolic heart failure; experiment: 2-dimensional speckle-tracking strain echocardiography, therapeutic model; assay type: in vivo; conditions: therapeutic: Bufalin 0.5 mg/kg; week 8
Method: as §1, §2, §5
Additionally, myocardial deformation was assessed using strain imaging such as 2-dimensional speckle-tracking strain echocardiography. Global longitudinal strain (GLS), a measure for the deformation of the myocardium, which decreases when diastolic dysfunction is present, is depicted in FIG. 15.

[10] = Myocardial and plasma concentrations, LC and QTOF-MS; assay type: in vivo, mice; conditions: 9 minutes after injection; Bufalin 0.5, Lycorine 4.5 mg/kg
Method: Plasma and hearts of C57BL/6N mice were harvested 9 minutes after injection with natural substances Bufalin (0.5 mg/kg) or Lycorine (4.5 mg/kg) (dissolved in DMSO). After extraction of the substances, Bufalin and Lycorine were quantified by liquid chromatography (LC) and quadrupole time-of-flight mass spectrometry (QTOF-MS) (see FIG. 30).

| SMILES | collagen deposition in heart sections (picrosirius-stained areas) [1] | most effective amount (pulmonary fibroblasts) [2] [µM] | proliferation of pulmonary fibroblasts (HPFs) [2] | E to A peak ratio [3] | Myocardial Performance Index (MPI) [3] | isovolumetric relaxation time (IVRT) [3] | kidney and liver morphology (HE, PAS) (kidney and liver [4]) | end-diastolic pressure-volume relationship (EDPVR) [5] | kidney and liver morphology (HE, PAS) (kidney and liver [6]) | number of miRNAs downregulated in HCFs (miRNA expression of HCFs) | number of miRNAs upregulated in HCFs (miRNA expression of HCFs) | velocity of tissue motion in diastole (E′) [7] | proliferation of renal fibroblasts (NRK49F) [8] | ejection fraction (EF) [9] | global longitudinal strain (GLS) [9] | levels in the myocardium compared to the plasma [10] | most effective amount (renal fibroblasts) [8] [µM] |
| --- | --- | --- | --- | --- | --- | --- | --- | --- | --- | --- | --- | --- | --- | --- | --- | --- | --- |
| C[C@]12CC[C@H](O)C[C@H]1CC[C@@H]1[C@@H]2CC[C@]2(C)[C@@H](c3ccc(=O)oc3)CC[C@]12O [Bufalin] | reduction of collagen deposition | 10 | significantly inhibits | increase | decrease | reduction | does not induce necrosis, inflammation or any morphological changes | significant reduction | does not induce necrosis, inflammation or any morphological changes | 33 | 14 | recovers the velocity of tissue motion in diastole | significantly inhibits only proliferation of pulmonary fibroblasts | remained comparable in all tested groups | significant reversal of the downshift | higher levels in (A) the myocardium as compared to (B) the plasma |  |
| O[C@H]1[C@H]2c3cc4c(cc3CN3CCC(=C[C@@H]1O)[C@H]23)OCO4 [Lycorine] | reduction of collagen deposition | 10 | significantly inhibits proliferation |  |  |  | does not induce necrosis, inflammation or any morphological changes | significant reduction | does not induce necrosis, inflammation or any morphological changes |  |  |  | significantly inhibits proliferation |  |  | higher levels in (A) the myocardium as compared to (B) the plasma | 10 |
